Data published in patent US20150087673A1, “METHODS FOR USING AND BIOMARKERS FOR AMPK-ACTIVATING COMPOUNDS” (RIGEL PHARMACEUTICALS, INC., priority 2013, published 2015).
Marks after values point to notes of the source that are not given here.

How the values were obtained:
AMPK = AMPK activation assay (enzyme-linked immunosorbent assay); assay type: cell-based
Method in brief: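 Read-out: immunodetected kinase activation after compound exposure, run with commercial kit reagents.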

db/db mice = assay: Metabolomics study: metabolite profiling of liver, muscle, adipose tissue and plasma of treated db/db mice; assay type: in vivo, mouse
Protocol: Maledb/db mice (8 weeks) were orally gavaged once daily with either vehicle or 10 mg/kg compound 309. Liver, muscle, adipose tissue, and plasma from treated mice (n=6/treatment group) were collected 30 minutes after dosing both on day 3 of treatment. Frozen tissue and plasma samples were sent to Metabolon for unbiased metabolite analysis [(Durham, N.C.) See, Evans A, DeHaven C, Barrett T, Mitchell M, Milgram E (2009)—Integrated, nontargeted ultrahigh performance liquid chromatography/electrospray ionization tandem mass spectrometry platform for the identification and relative quantification of the small-molecule complement of biological systems. Anal Chem 81: 6656-6667. Lawton K, Berger A, Mitchell M, Milgram K, Evans A, et al. (2008)—Analysis of the adult human plasma metabolome. Pharmacogenomics 9: 383-397. Reitman Z J, Jin G, Karoly E D, Spasojevic I, Yang J, et al. (2011) Profiling the effects of isocitrate dehydrogenase 1 and 2 mutations on the cellular metabolome. PNAS 108: […].] Biochemical data were analyzed using Welch's two-sample t-tests.
Metabolite profiling of tissues from db/db mice orally dosed with either vehicle or 10 mg/kg compound 309 was used to characterize in detail the effects of the present AMPK activators on nutrient pathways in a commonly used mouse model of type 2 diabetes. […] Since AMPK activation results in both acute and chronic changes to metabolic pathways, samples from non-fasted mice treated for three days with compound 309 were analyzed. Samples were collected thirty minutes after compound dosing when compound 309 plasma levels as well as tissue AMPK activation were maximal.

[1] = Adipose, 10 mg/kg oral once daily, day 3, 30 min after dosing
[2] = Liver, 10 mg/kg oral once daily, day 3, 30 min after dosing
[3] = Muscle, 10 mg/kg oral once daily, day 3, 30 min after dosing
[4] = Plasma, 10 mg/kg oral once daily, day 3, 30 min after dosing

EC50 (AMPK): < 500 nM
Structure (SMILES): COc1ccc(C(=O)C2CCN(C(=O)c3ccc(C(=O)NC4CCN(Cc5ccc(C#N)cc5)CC4)cn3)CC2)cc1 [Compound 309, N-(1-(4-cyanobenzyl)piperidin-4-yl)-6-(4-(4-methoxybenzoyl)piperidine-1-carbonyl)nicotinamide]
relative levels of the other amino acids (db/db mice; 10 mg/kg): not similarly affected
2-methylbutyrlcarnitine (C5) Ratio (Compound 309/Vehicle) (db/db mice; [1]): 0.57^††
3-hydroxybutyrate (BHBA) Ratio (Compound 309/Vehicle) (db/db mice; [1]): 1.68**
3-hydroxyisobutyrate Ratio (Compound 309/Vehicle) (db/db mice; [1]): 1.13
3-methyl-2-oxobutyrate Ratio (Compound 309/Vehicle) (db/db mice; [1]): 1
3-methyl-2-oxovalerate Ratio (Compound 309/Vehicle) (db/db mice; [1]): 1.31**
4-methyl-2-oxopentanoate Ratio (Compound 309/Vehicle) (db/db mice; [1]): 1.23
alanine Ratio (Compound 309/Vehicle) (db/db mice; [1]): 1
arginine Ratio (Compound 309/Vehicle) (db/db mice; [1]): 0.86^††
asparagine Ratio (Compound 309/Vehicle) (db/db mice; [1]): 0.84
aspartate Ratio (Compound 309/Vehicle) (db/db mice; [1]): 0.72^††
butyrylcarnitine Ratio (Compound 309/Vehicle) (db/db mice; [1]): 0.82
cysteine Ratio (Compound 309/Vehicle) (db/db mice; [1]): 0.62^†
glutamate Ratio (Compound 309/Vehicle) (db/db mice; [1]): 0.89
glutamine Ratio (Compound 309/Vehicle) (db/db mice; [1]): 0.95
glycine Ratio (Compound 309/Vehicle) (db/db mice; [1]): 0.81
hydroxybutyrylcarnitine Ratio (Compound 309/Vehicle) (db/db mice; [1]): 1.7**
hydroxylisovaleroyl carnitine Ratio (Compound 309/Vehicle) (db/db mice; [1]): 0.86
isobutyrylcarnitine Ratio (Compound 309/Vehicle) (db/db mice; [1]): 0.57^††
isoleucine Ratio (Compound 309/Vehicle) (db/db mice; [1]): 0.73
isovalerylcarnitine Ratio (Compound 309/Vehicle) (db/db mice; [1]): 0.58^††
leucine Ratio (Compound 309/Vehicle) (db/db mice; [1]): 0.78
lysine Ratio (Compound 309/Vehicle) (db/db mice; [1]): 0.74
methionine Ratio (Compound 309/Vehicle) (db/db mice; [1]): 0.87
phenylalanine Ratio (Compound 309/Vehicle) (db/db mice; [1]): 0.82
proline Ratio (Compound 309/Vehicle) (db/db mice; [1]): 0.86
propionylcarnitine Ratio (Compound 309/Vehicle) (db/db mice; [1]): 0.77
serine Ratio (Compound 309/Vehicle) (db/db mice; [1]): 0.85
threonine Ratio (Compound 309/Vehicle) (db/db mice; [1]): 0.77^†
tryptophan Ratio (Compound 309/Vehicle) (db/db mice; [1]): 0.9
tyrosine Ratio (Compound 309/Vehicle) (db/db mice; [1]): 0.85
valine Ratio (Compound 309/Vehicle) (db/db mice; [1]): 0.81
2-methylbutyrlcarnitine (C5) Ratio (Compound 309/Vehicle) (db/db mice; [2]): 0.76
3-hydroxybutyrate (BHBA) Ratio (Compound 309/Vehicle) (db/db mice; [2]): 1.15
3-methylglutaryl carnitine (C6) Ratio (Compound 309/Vehicle) (db/db mice; [2]): 0.57^††
N-acetylleucine Ratio (Compound 309/Vehicle) (db/db mice; [2]): 0.94
alanine Ratio (Compound 309/Vehicle) (db/db mice; [2]): 1.4**
alpha-hydroxyisovalerate Ratio (Compound 309/Vehicle) (db/db mice; [2]): 0.86
arginine Ratio (Compound 309/Vehicle) (db/db mice; [2]): 1.67
aspartate Ratio (Compound 309/Vehicle) (db/db mice; [2]): 1.59**
butyrylglycine Ratio (Compound 309/Vehicle) (db/db mice; [2]): 0.41^††
cysteine Ratio (Compound 309/Vehicle) (db/db mice; [2]): 0.97
glutamate Ratio (Compound 309/Vehicle) (db/db mice; [2]): 1.61**
glutamine Ratio (Compound 309/Vehicle) (db/db mice; [2]): 1.04
glycine Ratio (Compound 309/Vehicle) (db/db mice; [2]): 0.96
histidine Ratio (Compound 309/Vehicle) (db/db mice; [2]): 1.16*
hydroxybutyrylcarnitine Ratio (Compound 309/Vehicle) (db/db mice; [2]): 1.45**
hydroxylisovaleroyl carnitine Ratio (Compound 309/Vehicle) (db/db mice; [2]): 1
isoleucine Ratio (Compound 309/Vehicle) (db/db mice; [2]): 0.86^††
isovalerylcarnitine Ratio (Compound 309/Vehicle) (db/db mice; [2]): 0.54^††
leucine Ratio (Compound 309/Vehicle) (db/db mice; [2]): 0.94
lysine Ratio (Compound 309/Vehicle) (db/db mice; [2]): 1.11*
methionine Ratio (Compound 309/Vehicle) (db/db mice; [2]): 1.03
phenylalanine Ratio (Compound 309/Vehicle) (db/db mice; [2]): 0.96
proline Ratio (Compound 309/Vehicle) (db/db mice; [2]): 0.94
propionylcarnitine Ratio (Compound 309/Vehicle) (db/db mice; [2]): 0.73
serine Ratio (Compound 309/Vehicle) (db/db mice; [2]): 1.19
threonine Ratio (Compound 309/Vehicle) (db/db mice; [2]): 0.94
tryptophan Ratio (Compound 309/Vehicle) (db/db mice; [2]): 0.99
tyrosine Ratio (Compound 309/Vehicle) (db/db mice; [2]): 1.08
valine Ratio (Compound 309/Vehicle) (db/db mice; [2]): 0.87^††
2-methylbutyrlcarnitine (C5) Ratio (Compound 309/Vehicle) (db/db mice; [3]): 0.63^††
3-hydroxybutyrate (BHBA) Ratio (Compound 309/Vehicle) (db/db mice; [3]): 2.2**
3-hydroxyisobutyrate Ratio (Compound 309/Vehicle) (db/db mice; [3]): 1.33*
3-methyl-2-oxovalerate Ratio (Compound 309/Vehicle) (db/db mice; [3]): 0.78
4-methyl-2-oxopentanoate Ratio (Compound 309/Vehicle) (db/db mice; [3]): 0.96
alanine Ratio (Compound 309/Vehicle) (db/db mice; [3]): 0.96
alpha-hydroxyisovalerate Ratio (Compound 309/Vehicle) (db/db mice; [3]): 0.85
arginine Ratio (Compound 309/Vehicle) (db/db mice; [3]): 0.71
aspartate Ratio (Compound 309/Vehicle) (db/db mice; [3]): 0.82
butyrylcarnitine Ratio (Compound 309/Vehicle) (db/db mice; [3]): 0.62
butyrylglycine Ratio (Compound 309/Vehicle) (db/db mice; [3]): 1.07
glutamate Ratio (Compound 309/Vehicle) (db/db mice; [3]): 1.15
glutamine Ratio (Compound 309/Vehicle) (db/db mice; [3]): 1.04
glycine Ratio (Compound 309/Vehicle) (db/db mice; [3]): 0.96
histidine Ratio (Compound 309/Vehicle) (db/db mice; [3]): 1
hydroxybutyrylcarnitine Ratio (Compound 309/Vehicle) (db/db mice; [3]): 1.34*
hydroxylisovaleroyl carnitine Ratio (Compound 309/Vehicle) (db/db mice; [3]): 0.86^†
isobutyrylcarnitine Ratio (Compound 309/Vehicle) (db/db mice; [3]): 0.64^††
isoleucine Ratio (Compound 309/Vehicle) (db/db mice; [3]): 0.81^††
isovalerylcarnitine Ratio (Compound 309/Vehicle) (db/db mice; [3]): 0.58^††
leucine Ratio (Compound 309/Vehicle) (db/db mice; [3]): 0.83^†
lysine Ratio (Compound 309/Vehicle) (db/db mice; [3]): 0.96
methionine Ratio (Compound 309/Vehicle) (db/db mice; [3]): 0.78^†
phenylalanine Ratio (Compound 309/Vehicle) (db/db mice; [3]): 0.91
proline Ratio (Compound 309/Vehicle) (db/db mice; [3]): 0.92
propionylcarnitine Ratio (Compound 309/Vehicle) (db/db mice; [3]): 0.87^†
serine Ratio (Compound 309/Vehicle) (db/db mice; [3]): 0.89
threonine Ratio (Compound 309/Vehicle) (db/db mice; [3]): 0.89
tiglyl carnitine Ratio (Compound 309/Vehicle) (db/db mice; [3]): 0.98
tryptophan Ratio (Compound 309/Vehicle) (db/db mice; [3]): 0.95
tyrosine Ratio (Compound 309/Vehicle) (db/db mice; [3]): 0.96
valine Ratio (Compound 309/Vehicle) (db/db mice; [3]): 0.77^††
2-hydroxy-3-methylvalerate Ratio (Compound 309/Vehicle) (db/db mice; [4]): 0.91
2-methylbutyrlcarnitine (C5) Ratio (Compound 309/Vehicle) (db/db mice; [4]): 0.56^††
3-hydroxybutyrate (BHBA) Ratio (Compound 309/Vehicle) (db/db mice; [4]): 1.93**
3-hydroxyisobutyrate Ratio (Compound 309/Vehicle) (db/db mice; [4]): 1.69**
3-methyl-2-oxobutyrate Ratio (Compound 309/Vehicle) (db/db mice; [4]): 1.17
3-methyl-2-oxovalerate Ratio (Compound 309/Vehicle) (db/db mice; [4]): 1.06
3-methylglutaryl carnitine (C6) Ratio (Compound 309/Vehicle) (db/db mice; [4]): 0.55^††
4-methyl-2-oxopentanoate Ratio (Compound 309/Vehicle) (db/db mice; [4]): 1.05
N-acetylisoleucisne Ratio (Compound 309/Vehicle) (db/db mice; [4]): 1.11
N-acetylleucine Ratio (Compound 309/Vehicle) (db/db mice; [4]): 0.96
alanine Ratio (Compound 309/Vehicle) (db/db mice; [4]): 1.22
alpha-hydroxyisocaproate Ratio (Compound 309/Vehicle) (db/db mice; [4]): 0.91
alpha-hydroxyisovalerate Ratio (Compound 309/Vehicle) (db/db mice; [4]): 0.91
arginine Ratio (Compound 309/Vehicle) (db/db mice; [4]): 0.95
asparagine Ratio (Compound 309/Vehicle) (db/db mice; [4]): 0.89
butyrylcarnitine Ratio (Compound 309/Vehicle) (db/db mice; [4]): 0.65^†
butyrylglycine Ratio (Compound 309/Vehicle) (db/db mice; [4]): 0.41^††
cysteine Ratio (Compound 309/Vehicle) (db/db mice; [4]): 0.94
glutamate Ratio (Compound 309/Vehicle) (db/db mice; [4]): 1.22*
glutamine Ratio (Compound 309/Vehicle) (db/db mice; [4]): 1.03
glycine Ratio (Compound 309/Vehicle) (db/db mice; [4]): 1.03
histidine Ratio (Compound 309/Vehicle) (db/db mice; [4]): 0.99
hydroxybutyrylcarnitine Ratio (Compound 309/Vehicle) (db/db mice; [4]): 2.28**
isobutyrylcarnitine Ratio (Compound 309/Vehicle) (db/db mice; [4]): 0.41^††
isoleucine Ratio (Compound 309/Vehicle) (db/db mice; [4]): 0.75^††
isovalerylcarnitine Ratio (Compound 309/Vehicle) (db/db mice; [4]): 0.45^††
isovalerylglycine Ratio (Compound 309/Vehicle) (db/db mice; [4]): 0.67^††
leucine Ratio (Compound 309/Vehicle) (db/db mice; [4]): 0.75^†
lysine Ratio (Compound 309/Vehicle) (db/db mice; [4]): 0.91
methionine Ratio (Compound 309/Vehicle) (db/db mice; [4]): 0.88
phenylalanine Ratio (Compound 309/Vehicle) (db/db mice; [4]): 0.87
proline Ratio (Compound 309/Vehicle) (db/db mice; [4]): 0.96
propionylcarnitine Ratio (Compound 309/Vehicle) (db/db mice; [4]): 1.07
serine Ratio (Compound 309/Vehicle) (db/db mice; [4]): 0.83^†
threonine Ratio (Compound 309/Vehicle) (db/db mice; [4]): 0.9
tigloylglycine Ratio (Compound 309/Vehicle) (db/db mice; [4]): 0.96
tryptophan Ratio (Compound 309/Vehicle) (db/db mice; [4]): 1.02
tyrosine Ratio (Compound 309/Vehicle) (db/db mice; [4]): 1.11
valine Ratio (Compound 309/Vehicle) (db/db mice; [4]): 0.91
hydroxybutyrylcarnitine levels (db/db mice; all compartments sampled, 10 mg/kg): similarly increased
intermediates of the catabolic pathways of all three BCAA (db/db mice; all three major metabolic organs and plasma, 10 mg/kg): Marked reductions
effects on glucose metabolic pathways in global metabolite profiling (db/db mice; data not shown): no dramatic effects
relative levels of butyrylglycine and butyrylcarnitine (db/db mice; liver and plasma, 10 mg/kg): reduction
BHBA level vs vehicle (db/db mice; liver, 10 mg/kg oral once daily, day 3): no difference
3-hydroxybutyrate (BHBA) level vs vehicle (db/db mice; muscle, fat and plasma, 10 mg/kg oral once daily, day 3): significant elevation
